In article PMC9959553, “Promising Antifungal Molecules against Mucormycosis Agents Identified from Pandemic Response Box®: In Vitro and In Silico Analyses” (Journal of Fungi, 2023):
Converted amounts (≈) assume the structure as drawn. Read-outs that look alike come from different tables or passages of the source.

What was measured:
[1] = tested on: R. oryzae cells; assay: Analysis of fungal cell alterations with fluorescent staining; type: cell-based, Rhizopus oryzae; conditions: ½× MIC50, 48 h
Description: Alterations of R. oryzae cells caused by alexidine, MMV1580844, MMV642550 and MMV019724 were analyzed using fluorescent staining. Chitin, nucleic acid, oxidative stress, mitochondrial membrane potential and neutral lipid content were evaluated using calcofluor white (Sigma-Aldrich, MO, USA), Sytox Blue (ThermoFisher, Waltham, MA, USA), 2′,7′–dichlorofluorescein diacetate (DCFH-DA) (Sigma-Aldrich, MO, USA), JC-1 probe (ThermoFisher, Waltham, MA, USA) and Nile Red (Sigma-Aldrich, MO, USA), respectively. […] Cells were stained with 25 μg/mL of calcofluor white, 20 μM of Sytox Blue, 50 μg/mL of DCFH-DA, 10 μg/mL of JC-1 or 20 μg/mL of Nile Red, all of them for 1 h at 37 °C in the dark. Samples were washed three times to remove residual dye and suspended in PBS. Fluorescence intensity was measured using the SpectraMax 340 microplate reader (Molecular Devices, San José, CA, USA) under the following conditions: calcofluor white at 350 nm (excitation) and 432 nm (emission); Sytox Blue at 444 nm (excitation) and 480 nm (emission); DCFH-DA at 492 nm (excitation) and 517 nm (emission); JC-1 at 475 nm (excitation) and 529 nm (green fluorescence) or 590 nm (red fluorescence) for the calculation of the red/green fluorescence intensity; and Nile Red at 550 nm (excitation) and 635 nm (emission).

[2] = Cytotoxicity assay (neutral red); type: cell-based; conditions: human
Description: (§1) Cytotoxicity of alexidine, MMV1580844, MMV642550 and MMV019724 was performed using three cell lineages: RAW 264.7, a murine macrophage culture; A549, adenocarcinomic human alveolar basal epithelial cells; and HaCaT, a spontaneously transformed aneuploid immortal keratinocyte cell line from adult human skin. Cells were grown in DMEM (Dulbecco’s Modified Eagle’s Medium, Sigma-Aldrich, MO, USA), supplemented with 10% fetal bovine serum and incubated for 48 h at 37 °C with 5% CO2 in the presence of serially diluted concentrations (0.3–50 μM) of each compound. Cell viability was measured using the neutral red (NR) assay and quantified using a spectrophotometer at 595 nm (SpectraMax® i3x, Molecular Devices®, San José, CA, USA).

[3] = tested on: R. stolonifer preformed biofilm; assay: Preformed biofilm assay; type: cell-based, Rhizopus stolonifer; conditions: for Selectivity Index (SI), Preformed Biofilm: R. stolonifer, based on biofilm viability parameter
Description: (§2) For the preformed biofilm assay, cells were cultured as described above in the absence of the compounds. […] An additional incubation of 24 h at 37 °C was performed to evaluate the anti-biofilm activity. Evaluation of both biofilm formation and preformed biofilms was performed using three parameters as previously described. Crystal violet, safranin and XTT assays were used to analyze the overall biomass, extracellular matrix and metabolic activity, respectively.

[4] = tested on: R. oryzae UCP1295; assay: Screening of the Pandemic Response Box library at 5 µM; type: cell-based, Rhizopus oryzae; conditions: for inhibition at 5 µM: Rhizopus arrhizus, UCP1295, 48 h; for Viability Inhibition (XTT): XTT reduction
Outline: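 Compounds at 5 μM in RPMI 1640 with 2% glucose and MOPS (0.165 mol/L, pH 7.2), with conidia at 2 × 10^5/mL, incubated 48 h at 37 °C in 5% CO2. Growth read by OD at 600 nm; hits defined as ≥60% inhibition. Posaconazole (5 μM) and 1% DMSO as controls.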

[5] = tested on: R. oryzae UCP1295; assay: Antifungal drug synergy assay, checkerboard method (FICI); type: cell-based, Rhizopus oryzae; conditions: Rhizopus arrhizus, UCP1295, 48 h; drug alone; read-out: MIC50 Alone
Description: Synergistic interactions were evaluated using the checkerboard method according to EUCAST guidelines (EUCAST 2008). R. oryzae conidia (2 × 10^5/mL) were grown in 96-well plates containing supplemented RPMI in the presence of the following selected compounds: […] An inhibition of at least 50% was defined as the cut-off for minimum inhibitory concentration (MIC). Interactions were determined by the fractional inhibitory concentration index (FICI), which was calculated using the following formula: (MIC combined/MIC drug A alone) + (MIC combined/MIC drug B alone). […] The Bliss independence model calculation was performed according to […] colleagues and Zhao and colleagues. The following formula was used to assess drug interaction: […] The results were classified as follows: synergistic effect when Eobs > Eexp; indifference when Eobs = Eexp; antagonistic effect when Eobs < Eexp.

[6] = tested on: R. microsporus preformed biofilm; assay: Preformed biofilm assay; type: cell-based, Rhizopus microsporus; conditions: for Selectivity Index (SI), Preformed Biofilm: R. microsporus, based on biofilm viability parameter
Description: as §2

[7] = tested on: R. oryzae, R. microsporus and R. stolonifer; assay: Antifungal susceptibility testing, values stated over the three species; type: cell-based; conditions: over the three Rhizopus species
Description: (§3) The susceptibility of the Rhizopus species to MMV396785 (alexidine), MMV1580844, MMV642550 and MMV019724 was determined using the broth microdilution method, according to EUCAST protocols, with modifications. Posaconazole and amphotericin B were also used as reference antifungal drugs because they are commonly used for the treatment of mucormycosis. […] A standardized suspension of conidia (2 × 10^5/mL) was added to the wells and incubated for 48 h at 37 °C, in a 5% CO2 atmosphere. Fungal growth was analyzed via spectrophotometry readings at 600 nm and cell viability was assessed using the XTT reduction assay. Minimum inhibitory concentration (MIC) of each compound was defined as the lowest concentration that inhibits 50% of fungal growth, because these fungi are highly resistant to antifungal drugs and a reduction in half of their growth is relevant. […] MFC values were defined as the lowest drug concentration able to arrest fungal growth.

[8] = Cytotoxicity assay (neutral red); type: cell-based, murine; conditions: mouse, RAW 264.7 macrophage cells
Description: as §1

[9] = tested on: R. microsporus; assay: Antifungal susceptibility testing (broth microdilution, MIC and MFC); type: cell-based, Rhizopus microsporus var. microsporus; conditions: for Selectivity Index (SI), Planktonic Cell: R. microsporus, from CC50 and MIC50 of planktonic cells; for MIC50 / MFC: Rhizopus microsporus, 48 h; for MIC50: lowest concentration that inhibits 50% of fungal growth; for MFC: subculture in drug-free medium
Description: as §3

[10] = A549 alveolar basal epithelial cells, A549, 48 h
[11] = Table S1, mean of the four values, read-out: % of growth inhibition, Mean
[12] = optical density 600 nm, read-out: Growth Inhibition
[13] = preformed biofilm, 24 h treatment

MIC [5] [µM] | MIC [7] [µM] | MIC50 [9] [µM] | SMILES | chitin content (calcofluor white) [1] | mitochondrial membrane potential (JC-1) [1] | neutral lipids (Nile Red) [1] | CC50 at 48 h [2, 10] [µM] | CC50 at 48 h ([2]; HaCaT keratinocyte cells) [µM] | Selectivity Index (SI), Preformed Biofilm [3] | inhibition at 5 µM [4, 11] [%] | inhibition at 5 µM [4, 12] [%] | Viability Inhibition (XTT) [4] [%] | Selectivity Index (SI), Preformed Biofilm [6] | CC50 at 48 h [8] [µM] | Selectivity Index (SI), Planktonic Cell [9] | MFC [9] [µM] | also measured
0.63 | 0.63 to 1.25 (≈ 0.283 to 0.562 µg/mL) | 1.25 (≈ 0.562 µg/mL) | Oc1c(C(Nc2nc3ccccc3s2)c2ccc(OC(F)F)cc2)ccc2cccnc12 (stereo not shown) [MMV019724] | lower levels | mitochondrial alterations | lower levels | > 50 | > 50 | >40 | 69.6 | 70 | 77 | >40 | > 50 | >40 | > 20 | –
1.25 | 0.63 to 1.25 (≈ 0.321 to 0.636 µg/mL) | 1.25 (≈ 0.636 µg/mL) | CCCCC(CC)CNC(=N)NC(=N)NCCCCCCNC(=N)NC(=N)NCC(CC)CCCC (stereo not shown) [MMV396785, Alexidine, reference compound] | reduction | did not affect | reduction | > 50 | > 50 | – | 70.1 | 70 | 89 | – | > 50 | – | 1.25 (≈ 0.636 µg/mL) | DNA content (Sytox blue) [1]: reduction; Selectivity Index (SI), Preformed Biofilm ([3]; listed as Alexidina MMV396785): >20; concentration giving significant decrease in biofilm parameters [3, 13]: 4 × MIC; Viability Inhibition (XTT) ([4]; listed as alexidine): about 89%; Selectivity Index (SI), Preformed Biofilm ([6]; listed as Alexidina MMV396785): >20; concentration giving significant decrease in biofilm parameters [6, 13]: 2 × MIC; MFC [7]: 1.25 to 10 µM (≈ 0.636 to 5.09 µg/mL); Selectivity Index (SI), Planktonic Cell ([9]; listed as Alexidina MMV396785): >40

SMILES | MIC [5] [µM] | MIC [7] [µM] | MIC50 [9] [µM] | chitin content (calcofluor white) [1] | mitochondrial membrane potential (JC-1) [1] | neutral lipids (Nile Red) [1] | CC50 at 48 h [2, 10] [µM] | CC50 at 48 h ([2]; HaCaT keratinocyte cells) [µM] | Selectivity Index (SI), Preformed Biofilm [3] | inhibition at 5 µM [4, 11] [%] | inhibition at 5 µM [4, 12] [%] | Viability Inhibition (XTT) [4] [%] | Selectivity Index (SI), Preformed Biofilm [6] | CC50 at 48 h [8] [µM] | Selectivity Index (SI), Planktonic Cell [9] | MFC [9] [µM] | also measured
CCc1nc(N)nc(N)c1C#CC(C)c1cc(OC)cc(-c2ccncc2)c1 (stereo not shown) [MMV1580844] | 0.08 | 0.08 (≈ 0.0299 µg/mL) | 0.08 (≈ 0.0299 µg/mL) | – | depolarization of mitochondrial membranes | – | > 50 | > 50 | >312.5 | 70.2 | 71 | 88 | >156.3 | > 50 | >625 | > 20 | oxidative stress, ROS (DCFH-DA) [1]: induced oxidative stress
